Where two headings read alike, the source gives them in different places.
Experiments:
[1] = tested on: B. mandrillaris; set-up: method as in PMID 15347743, PMID 23869955, PMID 16579814; details: in vitro; cited from earlier work
[2] = tested on: B. mandrillaris trophozoites; experiment: microbe, parasite or virus in culture; assay type: cell-based, Balamuthia mandrillaris; details: for inhibition at 20 µM: Balamuthia mandrillaris, 72 h
[3] = tested on: B. mandrillaris trophozoites; experiment: Secondary screening dose response, B. mandrillaris trophozoites; assay type: cell-based, Balamuthia mandrillaris; details: 72 h, read-out: B. mandrillaris IC50
Protocol: (§2) Secondary screening of hit compounds consisted of dose-response experiments to measure the toxicity of each compound to B. mandrillaris trophozoites, HFF-1 human fibroblast cells, and H4 human neuroglioma cells. Four 384-well plates were prepared prior to addition of drug as follows: one opaque plate (Corning) seeded with 3,000 HFF-1 cells per well in 60 µl complete media, one opaque plate seeded with 2,000 H4 cells per well in 60 µl complete media, one opaque plate containing 30 µl axenic media, and one clear plate (Corning) containing 30 µl axenic media. Opaque plates were used to measure the viability of trophozoites in the CTG assay, and clear plates were used for microscopic examination of cyst formation. HFF-1 and H4 plates were seeded 24 h prior to drug addition. The selected primary screen hits were added from 10 mM DMSO stocks into wells of all four test plates to reach final concentrations ranging from 0.06 µM to 30 µM (10 concentrations, 2-fold serial dilution). Negative-control wells received concentrations of DMSO corresponding to the amount of DMSO in each tested drug well (reaching a maximum of 0.3% DMSO). B. mandrillaris trophozoites were resuspended in axenic media and added to the plates containing drug dilutions in axenic media at a density of 3,000 amoebae per well in a final volume of 60 µl media. All plates were incubated for 72 h. Throughout the incubation period, the clear-bottom B. mandrillaris plate was monitored for large-scale changes to population encystment in response to drug treatment. After the 72-h incubation, 30 µl of CTG reagent was added to all wells of the opaque assay plates and luminescence was measured with a Promega GloMax-Multi+ plate reader at 2, 4, and 8 h after CTG addition.

[4] = tested on: HFF-1 human fibroblast cells; experiment: Secondary screening dose response, toxicity to HFF-1 cells; assay type: cell-based; details: 72 h, approximated from dose-response curves, read-out: HFF1 IC50
Protocol: as §2

[5] = tested on: H4 human neuroglioma cells; experiment: Secondary screening dose response, toxicity to H4 cells; assay type: cell-based; details: 72 h, approximated from dose-response curves
[6] = tested on: B. mandrillaris trophozoites; experiment: Side-by-side dose response, trophozoite viability; assay type: cell-based, Balamuthia mandrillaris; details: Balamuthia mandrillaris, 72 h, read-out: IC50, B. mandrillaris trophozoites, 72 h
Protocol: (§1) B. mandrillaris trophozoites were seeded at 4,000 amoebae per well into opaque and clear-bottom 96-well plates (Corning). Homogenous populations of B. mandrillaris cysts generated by galactose induction were seeded at 4,000 amoebae per well into opaque 96-well plates. HFF-1 (fibroblast), H4 (glial), U87 (glial), HEK-293T (kidney), and Hep-G2 (liver) cells were seeded at 3,000 cells per well in opaque 96-well plates 24 h prior to addition of drug. Stocks of nitroxoline (Selleck Chemicals) were dissolved in 100% DMSO at 10 mM. Stocks of azithromycin (Selleck Chemicals), pentamidine isethionate (Selleck Chemicals), and miltefosine (Selleck Chemicals) were dissolved in water at 10 mM. Drug stocks were serially diluted in water to generate 12-point dilution series, which were then used to treat assay wells containing B. mandrillaris or human cells at final concentrations ranging from 0.39 µM to 400 µM in 100-µl total well volumes. Control wells were treated with vehicle (DMSO or water) at concentrations corresponding to the final vehicle concentrations in each drug dilution series. After incubation for 72 h, 50 µl of CTG was added to all assay wells. Luminescence was measured with a Promega GloMax-Multi+ plate reader 2, 4, and […] after CTG addition. All dose-response experiments were performed with at least three independent biological replicates. IC50 values were determined as previously described. To quantify encystment under treated and untreated conditions, amoebae in individual assay wells were resuspended thoroughly and the number of cysts and number of trophozoites in 10-µl samples were counted by the use of a hemocytometer (SKC, Inc.). Cysts and trophozoites are morphologically distinct, making them simple to distinguish with bright-field microscopy (example images are shown in Fig. S1 in the supplemental material). Encystment assays were performed with three independent biological replicates.

[7] = tested on: B. mandrillaris cysts; experiment: Dose response, viability of preformed galactose-induced cysts; assay type: cell-based, Balamuthia mandrillaris; details: 72 h
Protocol: Following the findings of a previous study, encystment of B. mandrillaris was induced by galactose exposure ([74]). B. mandrillaris trophozoites were grown to log phase in axenic media, and galactose was added to reach a final concentration of 12% (vol/vol). Amoebae were cultured in the induction medium until trophozoites were no longer observed (approximately 10 days). Galactose-induced cysts transition back to trophozoites after approximately 3 days of incubation in galactose-free axenic medium. Therefore, all assays with cysts were completed in the induction medium. […] All incubation steps for B. mandrillaris growth were carried out at 37°C with 5% CO2.
as §1

[8] = Cytotoxicity dose response, U87; assay type: cell-based; details: human, U87 (glial) cells, unit not given in Table S3, drug concentrations in µM, read-out: CC50 U87 cell line
Protocol: as §1

[9] = Cytotoxicity dose response, H4; assay type: cell-based; details: human, H4 (glial) cells, unit not given in Table S3, drug concentrations in µM, read-out: CC50 H4 cell line
Protocol: as §1

[10] = Cytotoxicity dose response, HEK-293T; assay type: cell-based; details: human, HEK-293T (kidney) cells, unit not given in Table S3, drug concentrations in µM, read-out: CC50 HEK-293T cell line
Protocol: as §1

[11] = Cytotoxicity dose response, HFF-1; assay type: cell-based; details: human, HFF-1 (fibroblast) cells, unit not given in Table S3, drug concentrations in µM, read-out: CC50 HFF-1 cell line
Protocol: as §1

[12] = Cytotoxicity dose response, Hep-G2; assay type: cell-based; details: human, Hep-G2 (liver) cells, unit not given in Table S3, drug concentrations in µM, read-out: CC50 Hep-G2 cell line
Protocol: as §1

[13] = Cytotoxicity, mean of all cell lines; assay type: cell-based; details: human, U87, H4, HEK-293T, HFF-1 and Hep-G2 cell lines (mean of all), unit inferred
Protocol: as §1

[14] = tested on: B. mandrillaris; experiment: Encystment assay, counts of cysts and trophozoites; assay type: cell-based, Balamuthia mandrillaris; details: 72 h of treatment with different drug concentrations
Protocol: as §1

[15] = tested on: B. mandrillaris; experiment: Recrudescence assay on HFF-1 monolayer after drug treatment; assay type: cell-based, Balamuthia mandrillaris
[16] = tested on: B. mandrillaris trophozoites; experiment: Drug combination dose matrices, trophozoite viability (EOHSA model); assay type: cell-based, Balamuthia mandrillaris; details: Fig S2B, 72 h
Protocol: Experiments measuring the effect of drug combinations were carried out similarly to the dose-response experiments described above. B. mandrillaris trophozoites were seeded into opaque 96-well plates (Corning) at a density of 4,000 amoebae per well and then treated with concentrations of nitroxoline that differed across the rows of each plate and with concentrations of either miltefosine or pentamidine isethionate that differed down the columns to generate 7-by-7 dose combination matrices. Final drug concentrations ranged from 0.5 to 10 µM, from 10 to 100 µM, and from 1 to 100 µM for nitroxoline, miltefosine, and pentamidine isethionate, respectively. After incubation with drug or vehicle was performed for 72 h, CTG was added to all assay wells and luminescence was measured with a Promega Glomax-Multi+ plate reader. The percent effect of each drug combination was calculated as the reduction in luminescence value relative to vehicle-only controls. The additive effect of drug combinations was assessed using the excess over highest single agent (EOHSA) model ([76], [77]). […] Drug combination experiments were performed with three independent replicates.

Nc1ccc(S(=O)(=O)Nc2ncccn2)cc1 [sulfadiazine]
inhibition of amoebic growth [1]: little to no inhibition

CC(C)c1c(C(=O)Nc2ccccc2)c(-c2ccccc2)c(-c2ccc(F)cc2)n1CC[C@@H](O)C[C@@H](O)CC(=O)O [Atorvastatin]
inhibition at 20 µM [2]: 40%
IC50 ([3]; Balamuthia mandrillaris): > 30 µM
IC50 ([4]; Homo sapiens, HFF-1): > 30 µM
IC50 ([5]; Homo sapiens): > 30 µM

CN(C)CCCN1c2ccccc2CCc2ccccc21 [Imipramine]
inhibition at 20 µM [2]: 42%
IC50 ([3]; Balamuthia mandrillaris): > 30 µM
IC50 ([4]; Homo sapiens, HFF-1): > 30 µM
IC50 ([5]; Homo sapiens): > 30 µM

Plicamycin
% Inhibition ([2]; 20 µM): 45%
IC50 ([3]; approximated from dose-response curves): > 30 µM
IC50 [4]: < 0.06 µM
IC50 [5]: < 0.06 µM

N=C(N)c1ccc(OCCCCCOc2ccc(C(=N)N)cc2)cc1 [Pentamidine isethionate]
inhibition at 20 µM [2]: 35%
IC50 ([3]; Balamuthia mandrillaris): 11 µM
IC50 ([4]; Homo sapiens, HFF-1): > 30 µM
IC50 ([5]; Homo sapiens): 8 µM
IC50 [6]: 9.1 µM
IC50 ([7]; Balamuthia mandrillaris, read-out: IC50, B. mandrillaris cysts, preformed cysts, 12% galactose induction medium, 72 h): 26.3 µM
IC50 ([7]; preformed cysts, 12% galactose induction medium, read-out: IC50, B. mandrillaris cysts): 26.3 µM
CC50 at 72 h [8]: 20.7 µM
CC50 at 72 h [9]: 5.7 µM
CC50 at 72 h [10]: 4.8 µM
CC50 at 72 h [11]: 23.4 µM
CC50 at 72 h [12]: 0.7 µM
CC50 at 72 h [13]: 11.1 µM
encystment response [14]: increase in both the total number and the proportion of cysts
Mean no. of days for host cell clearance ± SE ([15]; 3.5 µM for 72 h, then drug-free coculture with HFF-1, 28-day experiment): 1.33 ± 0.33 days
Mean no. of days for host cell clearance ± SE ([15]; 7 µM for 72 h, then drug-free coculture with HFF-1, 28-day experiment): 7 ± 1.15 days
Mean no. of days for host cell clearance ± SE ([15]; 14 µM for 72 h, then drug-free coculture with HFF-1, 28-day experiment): 13 ± 2.51 days
Mean no. of days for host cell clearance ± SE ([15]; 28 µM for 72 h, then drug-free coculture with HFF-1, NRT = no recovery of trophozoites or host cell destruction observed through 28 days): 15.33 ± 2.56 days
Mean no. of days for host cell clearance ± SE ([15]; 56 µM for 72 h, then drug-free coculture with HFF-1, 28-day experiment): 16 ± 2 days
Percent inhibition of B. mandrillaris viability ([16]; pentamidine 1 µM alone): -1%
Percent inhibition of B. mandrillaris viability ([16]; pentamidine 5 µM alone): 32%
Percent inhibition of B. mandrillaris viability ([16]; pentamidine 10 µM alone): 51%
Percent inhibition of B. mandrillaris viability ([16]; pentamidine 20 µM alone): 62%
Percent inhibition of B. mandrillaris viability ([16]; pentamidine 50 µM alone): 68%
Percent inhibition of B. mandrillaris viability ([16]; pentamidine 100 µM alone): 82%
inhibition of amoebic growth [1]: amoebicidal or amoebistatic activity

CC#C[C@]1(O)CC[C@H]2[C@@H]3CCC4=CC(=O)CCC4=C3[C@@H](c3ccc(N(C)C)cc3)C[C@@]21C [Mifepristone]
inhibition at 20 µM [2]: 43%
IC50 ([3]; Balamuthia mandrillaris): > 30 µM
IC50 ([4]; Homo sapiens, HFF-1): > 30 µM
IC50 ([5]; Homo sapiens): > 30 µM

COCc1c(C(C)C)nc(C(C)C)c(/C=C/[C@@H](O)C[C@@H](O)CC(=O)O)c1-c1ccc(F)cc1 [Cerivastatin, Cerivastatin Na, Cerivastatin]
inhibition at 20 µM [2]: 66%
IC50 ([3]; Balamuthia mandrillaris): 9 µM
IC50 ([4]; Homo sapiens, HFF-1): < 0.06 µM
IC50 ([5]; Homo sapiens): 0.2 µM

Source: PMC6212833 (mBio, 2018)
